Assay results: publication PMC7570844, “Skin Damages—Structure Activity Relationship of Benzimidazole Derivatives Bearing a 5-Membered Ring System” (Molecules, 2020)
≈ marks a conversion by molar mass, not a printed value.

Legend:
[1] = system: human pancreatic carcinoma cells (Mia Paca-2); assay: Cell proliferation inhibition
Epidermophyton floccosum = assay: Antidermatophyte plaque growth inhibition; format: cell-based; conditions: for inhibition at 100 µg/mL: E. floccosum, '+' has no key, read-out: Percent growth inhibition
[2] = Ferric reducing antioxidant power (FRAP) test; conditions: mean ± SEM
vaccinia virus = assay: microbe, parasite or virus in culture; format: cell-based; conditions: Orthopoxvirus vaccinia, HEL, read-out: Antiviral EC50
Microsporum canis = assay: Antidermatophyte plaque growth inhibition; format: cell-based; conditions: for inhibition at 100 µg/mL: M. canis, '+' has no key, read-out: Percent growth inhibition
[3] = system: Respiratory syncytial virus; assay: microbe, parasite or virus in culture; format: cell-based; conditions: human respiratory syncytial virus, HeLa cells, read-out: Antiviral EC50
[4] = DPPH radical scavenging test; conditions: tested at 1 mg/mL; mean ± SEM
Microsporum gypseum = assay: Antidermatophyte plaque growth inhibition; format: cell-based; conditions: Nannizzia gypsea; for inhibition at 100 µg/mL: M. gypseum, '+' has no key, read-out: Percent growth inhibition
[5] = system: human embryonic lung (HEL) cell cultures
Human Coronavirus (229E) = assay: microbe, parasite or virus in culture; format: cell-based; conditions: HEL, read-out: Antiviral EC50
[6] = system: herpes simplex virus-2 (G); assay: Antiviral activity in HEL cell cultures (CPE, MTS); format: cell-based; conditions: Human alphaherpesvirus 2; Herpes simplex virus-2, HEL cells
[7] = system: HEK293T (Normal Kidney Epithelial Cells); assay: Cell proliferation inhibition, non-cancer control cells; conditions: Homo sapiens, HEK-293T
[8] = UV filtering parameters of compounds in solution (MeOH, 290-400 nm)
[9] = system: human melanoma cells (SK-Mel 5); assay: Cell proliferation inhibition
HeLa cell cultures = conditions: human
[10] = system: human T-lymphocyte cells (CEM); assay: Cell proliferation inhibition
Coxsackie virus B4 = assay: Antiviral activity in HeLa cell cultures (CPE, MTS); format: cell-based; conditions: Enterovirus B; Coxsackie virus B4, HeLa cells
[11] = system: human cervical carcinoma cells (HeLa); assay: Cell proliferation inhibition
[12] = system: herpes simplex virus-1 TK-KOS ACVr; assay: microbe, parasite or virus in culture; format: cell-based; conditions: Human alphaherpesvirus 1, HEL, read-out: Antiviral EC50
Adeno virus-2 = assay: Antiviral activity in HEL cell cultures (CPE, MTS); format: cell-based; conditions: Adeno virus-2, HEL cells
[13] = system: vesicular stomatitis virus; assay: microbe, parasite or virus in culture; format: cell-based; conditions: HeLa, read-out: Antiviral EC50
Trichophyton tonsurans = assay: Antidermatophyte plaque growth inhibition; format: cell-based; conditions: for inhibition at 100 µg/mL: T. tonsurans, '+' has no key, read-out: Percent growth inhibition
[14] = system: herpes simplex virus-1 (KOS); assay: Antiviral activity in HEL cell cultures (CPE, MTS); format: cell-based; conditions: Human alphaherpesvirus 1, HEL cells
[15] = system: Trichophyton mentagrophytes; assay: Antidermatophyte plaque growth inhibition; format: cell-based; conditions: for inhibition at 100 µg/mL: T. mentagrophytes, '+' has no key, read-out: Percent growth inhibition
[16] = UV filtering parameters of cosmetic formulation on PMMA plates (modified Diffey-Robson); format: physicochemical
[17] = system: M. gypseum, M. canis, T. mentagrophytes, T. tonsurans and E. floccosum; assay: Antidermatophyte activity, all five dermatophytes taken together; format: cell-based

Q: Which IC50 [1] does the source give for `O=C(O)c1ccc2[nH]c(-c3ccc[nH]3)nc2c1` [Compound 13, 2-(1H-pyrrol-2-yl)-1H-benzimidazole-5-carboxylic Acid] here?
A: > 100 µM

Q: What about the inhibition at 100 µg/mL (Epidermophyton floccosum) of the same compound?
A: 21.1 ± 2.14%

Q: What about the FRAP [2] of the same compound?
A: 108.89 ± 2.98 µmolTE/g

Q: What about the EC50 (vaccinia virus) of the same compound?
A: > 100 µM

Q: And the inhibition at 100 µg/mL (Microsporum canis)?
A: 8.66 ± 1.78%

Q: What about the EC50 [3] of the same compound?
A: > 100 µM

Q: And the “DPPH (% Inhibition)” value [4]?
A: 33.00 ± 1.28%

Q: And the inhibition at 100 µg/mL (Microsporum gypseum)?
A: 3.74 ± 1.49%

Q: And the Cytotoxic concentration [5]?
A: > 100 µM

Q: And the EC50 (Human Coronavirus (229E))?
A: > 100 µM

Q: And the EC50 [6]?
A: > 100 µM

Q: And the IC50 [7]?
A: > 100 µM

Q: What about the SPF [8] of the same compound?
A: 7.40±0.23

Q: What about the UVA/UVB [8] of the same compound?
A: 0.7

Q: And the UVAPF [8]?
A: 1.10±0.09

Q: What about the “λc (critical wavelength)” value [8] of the same compound?
A: 345 nm

Q: And the IC50 [9]?
A: > 100 µM

Q: What about the Cytotoxic concentration (HeLa cell cultures) of the same compound?
A: > 100 µM

Q: What about the melting point of the same compound?
A: > 250 °C

Q: What about the IC50 [10] of the same compound?
A: > 100 µM

Q: And the EC50 (Coxsackie virus B4)?
A: > 100 µM

Q: What about the IC50 [11] of the same compound?
A: > 100 µM

Q: And the EC50 [12]?
A: > 100 µM

Q: And the EC50 (Adeno virus-2)?
A: > 100 µM

Q: What about the EC50 [13] of the same compound?
A: > 100 µM

Q: What about the inhibition at 100 µg/mL (Trichophyton tonsurans) of the same compound?
A: 4.55 ± 1.34%

Q: What about the EC50 [14] of the same compound?
A: > 100 µM

Q: And the inhibition at 100 µg/mL [15]?
A: < 0%

Q: Which IC50 [1] does the source give for `c1csc(-c2nc3ccccc3[nH]2)c1` [Compound 12, 2-(thiophen-2-yl)-1H-benzimidazole] here?
A: ≥ 100 µM

Q: What about the IC50 (Epidermophyton floccosum; E. floccosum growth, read-out: IC50) of the same compound?
A: 3.8 ± 0.07 µg/mL (≈ 19 µM)

Q: What about the inhibition at 100 µg/mL (Epidermophyton floccosum) of the same compound?
A: 94.7 ± 5.45%

Q: What about the FRAP [2] of the same compound?
A: 75.89 ± 5.43 µmolTE/g

Q: And the EC50 (vaccinia virus)?
A: > 100 µM

Q: And the IC50 (Microsporum canis; M. canis growth, read-out: IC50)?
A: 2.14 ± 0.09 µg/mL (≈ 10.7 µM)

Q: What about the inhibition at 100 µg/mL (Microsporum canis) of the same compound?
A: 92.9 ± 1.33%

Q: And the EC50 [3]?
A: > 100 µM

Q: What about the “DPPH (% Inhibition)” value [4] of the same compound?
A: 35.05 ± 0.87%

Q: What about the IC50 (Microsporum gypseum; M. gypseum growth, read-out: IC50) of the same compound?
A: 1.55 ± 0.03 µg/mL (≈ 7.74 µM)

Q: What about the inhibition at 100 µg/mL (Microsporum gypseum) of the same compound?
A: 100 ± 1.63%

Q: And the SPF ([16]; 1% in formulation)?
A: 2.41

Q: What about the UVA/UVB ([16]; 1% in formulation) of the same compound?
A: 0.71

Q: And the UVAPF ([16]; 1% in formulation)?
A: 1.16

Q: And the λc ([16]; 1% in formulation)?
A: 340 nm

Q: And the SPF ([16]; 2% in formulation)?
A: 2.59

Q: And the UVA/UVB ([16]; 2% in formulation)?
A: 0.70

Q: And the UVAPF ([16]; 2% in formulation)?
A: 1.22

Q: And the λc ([16]; 2% in formulation)?
A: 342 nm

Q: What about the SPF ([16]; 3% in formulation) of the same compound?
A: 2.79

Q: What about the UVA/UVB ([16]; 3% in formulation) of the same compound?
A: 0.69

Q: What about the UVAPF ([16]; 3% in formulation) of the same compound?
A: 1.26

Q: And the λc ([16]; 3% in formulation)?
A: 344 nm

Q: And the Cytotoxic concentration [5]?
A: > 100 µM

Q: What about the EC50 (Human Coronavirus (229E)) of the same compound?
A: > 100 µM

Q: And the EC50 [6]?
A: > 100 µM

Q: And the IC50 [7]?
A: > 100 µM

Q: What about the UVA/UVB [8] of the same compound?
A: 0.37

Q: And the UVAPF [8]?
A: 1.49±0.07

Q: And the “λc (critical wavelength)” value [8]?
A: 345 nm

Q: What about the IC50 [9] of the same compound?
A: 86 ± 17 µM

Q: What about the Cytotoxic concentration (HeLa cell cultures) of the same compound?
A: > 100 µM

Q: And the IC50 [10]?
A: > 100 µM

Q: And the “Activity on dermatophytes (in words)” value ([17]; 100 µg/mL)?
A: fungicide activity

Q: And the inhibition at 100 µg/mL ([17]; 100 µg/mL, all five dermatophytes, read-out: Percentage of growth inhibition over the five dermatophytes)?
A: ~100%

Q: And the IC50 ([17]; all five dermatophytes, read-out: IC50 range over the five dermatophytes)?
A: 0.97 to 3.8 µg/mL (≈ 4.84 to 19 µM)

Q: What about the EC50 (Coxsackie virus B4) of the same compound?
A: > 100 µM

Q: And the IC50 [11]?
A: > 100 µM

Q: What about the EC50 [12] of the same compound?
A: > 100 µM

Q: And the EC50 (Adeno virus-2)?
A: > 100 µM

Q: And the EC50 [13]?
A: > 100 µM

Q: What about the IC50 (Trichophyton tonsurans; T. tonsurans growth, read-out: IC50) of the same compound?
A: 2.42 ± 0.15 µg/mL (≈ 12.1 µM)

Q: And the inhibition at 100 µg/mL (Trichophyton tonsurans)?
A: 97 ± 1.34%

Q: And the EC50 [14]?
A: > 100 µM

Q: What about the IC50 ([15]; T. mentagrophytes growth, read-out: IC50) of the same compound?
A: 1.74 ± 0.11 µg/mL (≈ 8.69 µM)

Q: And the inhibition at 100 µg/mL [15]?
A: 98.1 ± 2.76%
